This is an account of results in patent US20260373183A1, “ANTIBIOTIC-RESISTANT ARTIFICIAL NUCLEOSIDE, COMPOSITION AND METHOD” (priority 2022, published 2026).

Test [1] relates to Pseudomonas aeruginosa strains (VIM-2, SPM-1, IMP-1, OXA-50, ATCC 27853, PA01). The test can be described thus: checkerboard MIC experiments, 5-NIdR combined with aztreonam/avibactam. It is filed as cell-based. The protocol: 5-NIdR alone was not active, displaying individual MICs>512 μg/ml against these strains.
For a further test, the system named is bacterial persisters. The test can be described thus: fluorescence and SEM of bacterial persisters treated with aztreonam/avibactam with or without 5-NIdR (FIG. 5). It counts as cell-based. The source says: First, the artificial nucleoside inhibits TLS activity in response to ROS generated by β-lactams, and this serves to enhance the cytotoxicity of this class of antibiotics. […] These two features represent a novel approach to attack drug-resistant bacteria.

The structures appear in SMILES notation.

Turning to `O=[N+]([O-])c1ccc2c(ccn2[C@H]2C[C@H](O)[C@@H](CO)O2)c1` [5-NIdR, 5-nitro-indolyl-2′-deoxynucleoside], in test [1] (5-NIdR alone, against these strains), the “activity of 5-NIdR alone” value was “not active”. In test [1] (5-NIdR combined with aztreonam/avibactam, 5-NIdR concentrations as low as 0.5 μg/ml, all strains listed), the “fold reduction in the MICs for aztreonam/avibactam” value is on record as > 10 -fold. In test [1] (Pseudomonas aeruginosa, ATCC27853, read-out: minimal inhibitory concentrations (MICs)), the MIC was above 512 µg/mL. Moreover, the “lowest 5-NIdR concentration required to achieve a >10-fold reduction in the MICs for aztreonam/avibactam” value in test [1] (combined with β-lactams (aztreonam/avibactam), all Pseudomonas aeruginosa strains listed) is 0.5 μg/ml. Also, in test [1] (combining 5-NIdR with aztreonam/avibactam in drug-resistant bacteria (FIG. 3A-F)), the “cell-killing effects in checkerboard analysis” value is recorded as “synergistic cell-killing effects”. Further, in test [1] (variable concentrations of 5-NIdR combined with variable concentrations of aztreonam/avibactam), the “inhibitory activity in checkerboard experiments” value is “excellent inhibitory activity”. Also, the “influence on formation of persisters induced by antibiotic treatment” value in the test with bacterial persisters (5-NIdR added to aztreonam/avibactam, panel d) is listed as “does not appear to influence formation of persisters”. Moreover, in the test on bacterial persisters (5-NIdR combined with aztreonam/avibactam), the “viability of filamentous persisters” value was “adversely affects the viability of filamentous persisters”. Moreover, in the test on bacterial persisters (5-NIdR combined with aztreonam/avibactam, panels d, e), the “morphology of persisters (fluorescence and SEM)” value is given as “formation of “ghost” apoptotic saccules which represent non-viable persisters that do not undergo reversion”.
